According to PMC10065799, “High-throughput profiling of sequence recognition by tyrosine kinases and SH2 domains using bacterial peptide display” (eLife, 2023):

Legend:
Test in all cases: pTyr-Var library bacterial peptide display kinase screen (enrichment scores)
c-Src kinase domain = c-Src kinase domain (Homo sapiens, UniProt P12931); assay type: biochemical; conditions: sheet "Src";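 note: log2 fold change in enrichment of variant over reference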
c-Abl kinase domain = target: T1, c-Abl kinase domain (Mus musculus, UniProt P00520); assay type: biochemical;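 note: log2 fold change in enrichment of variant over reference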
T1 sequence (P00520 242-493 limits assumed): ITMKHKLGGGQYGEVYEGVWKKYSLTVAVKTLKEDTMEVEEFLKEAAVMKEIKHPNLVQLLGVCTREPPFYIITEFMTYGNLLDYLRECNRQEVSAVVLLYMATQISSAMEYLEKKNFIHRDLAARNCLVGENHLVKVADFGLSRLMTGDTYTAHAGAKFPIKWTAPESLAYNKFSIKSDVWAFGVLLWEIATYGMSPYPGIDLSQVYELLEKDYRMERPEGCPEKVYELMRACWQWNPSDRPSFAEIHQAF

Fer kinase domain = assay type: biochemical, mouse; conditions: sheet "Fer"
EPHB1 kinase domain = assay type: biochemical, human; conditions: for Screen: sheet EPHB1, effect of the variant peptide relative to its reference peptide in the pTyr-Var library screen (enrichment scores); for Screen (variant relative to reference peptide, measured in the pTyr-Var library screen): sheet "EPHB1", variant seq vs reference seq, bacterial peptide display enrichment
EPHB2 kinase domain = assay type: biochemical, human; conditions: sheet EPHB2
[1] = effect of the variant peptide relative to its reference peptide in the pTyr-Var library screen
[2] = fig5-data2, sheet "Abl", Screen for the variant/reference peptide pair, pTyr-Var library
[3] = value of the variant peptide against its reference peptide in the pTyr-Var library screen with Fer
[4] = variant peptide versus its reference peptide in the pTyr-Var library screen
[5] = effect of variant peptide relative to its reference peptide in the pTyr-Var library screen (enrichment scores)
[6] = variant peptide relative to its reference peptide, pTyr-Var library screen enrichment
[7] = effect of the variant relative to its reference peptide in the pTyr-Var library screen
[8] = sheet "Abl", effect of variant peptide relative to its reference peptide in pTyr-Var library screen (enrichment)

Row | Sequence | Screen (c-Src kinase domain; [1]) | Screen (Fer kinase domain; [3]) | Screen (EPHB1 kinase domain) | Screen (EPHB2 kinase domain; [5]) | also measured
1 | FSMGCYEFSLG [HMGCL_Y198_I200F_YF] | -0.3724 | 0.8119 |  |  | Screen (c-Abl kinase domain; [2]): 1.5
2 | SEPDLYFDPRG [PKP1_Y160_C161Y_YF] |  | -1.5 | 1.592 | 1.913 | Screen (c-Src kinase domain; [4]): 1.044
3 | NVKGIYAVADV [GSR_Y371_G374A] | -0.2612 | 1.853 | 1.714 | 2.725 | 
4 | LTFHMYADPNI [SOS1_Y618_F623I_YF] |  |  |  | 0.3507 | Screen (variant relative to reference peptide, measured in the pTyr-Var library screen) (EPHB1 kinase domain): 0.02693
5 | FKEDPYLVVNP [MCM6_Y810_E806K_YF] | -0.4166 |  |  |  | Screen (c-Abl kinase domain; [2]): -1.709
6 | KAWGIYDCQQP [CYP3A7_Y75_V71A] | 0.09779 | 0.5201 | 0.3477 | 0.8548 | 
7 | RIGRKYKRVRF [F8_Y442_K444R] | 3.277 |  |  | 1.084 | 
8 | RTVPLYESLRK [DDB1_Y718_P721L] | 1.169 | -0.4469 | 0.1495 | -0.0735 | 
9 | VKANTYENFWP [GATM_Y100_K102N_YF] | 0.5982 | 1.784 | 2.281 | 2.516 | 
10 | RNFGTYTAGLS [RHBDD1_Y264_D262G_YF] |  |  | -2.368 | -2.902 | 
11 | RQQQDYWLKDV [ANPEP_Y600_I603K] |  | -2.803 | -4.233 | -3.253 | 
12 | PANMVYSTVEI [SLAMF7_Y304_T302M] |  |  |  | 0.9599 | Screen (c-Src kinase domain; [4]): 0.01938; Screen (Fer kinase domain; [6]): -0.2345; Screen (variant relative to reference peptide, measured in the pTyr-Var library screen) (EPHB1 kinase domain): 0.5023
13 | FEPWVYSLSFE [PRKDC_Y647_F649L_YF] |  |  |  |  | Screen (c-Src kinase domain; [4]): 0.05044; Screen (c-Abl kinase domain; [2]): -0.5163
14 | ITNVLYHVVGW [GBA_Y412_L410V] | -0.5492 | -0.5496 | -1.243 | -1.361 | 
15 | VDGSVYELHPS [GCK_Y413_K414E] | 1.442 | 4.734 | 2.239 | 2.546 | 
16 | NDFGNYSNQSS [HNRNPA1_Y318_N319S] |  |  | 4.118 | 2.422 | 
17 | FAELVYTSFWH [ASS1_Y322_G324S] | -0.03781 | 0.3535 | 0.4613 | 0.4289 | 
18 | SQINLYQDVML [ZNF806_Y33_A28S] |  |  |  |  | Screen (Fer kinase domain; [6]): -0.1473; Screen (variant relative to reference peptide, measured in the pTyr-Var library screen) (EPHB1 kinase domain): -0.1927; Screen (EPHB2 kinase domain; [7]): -0.4727
19 | TLSGTYQFIIA [FOXL2_Y81_I80T_YF] | -2.746 | -3.428 | -3.534 | -3.51 | 
20 | VARAVYQAVLS [SMG1_Y549_H546R] |  |  |  | -3.744 | Screen (c-Src kinase domain; [4]): -1.809; Screen (Fer kinase domain; [6]): -2.673; Screen (variant relative to reference peptide, measured in the pTyr-Var library screen) (EPHB1 kinase domain): -4.046
21 | AEFGLYRAMVR [VSX2_Y222_G223R_YF] |  |  |  |  | Screen (c-Src kinase domain; [4]): -2.091; Screen (c-Abl kinase domain; [8]): 2.423
22 | KSRQIYDAFIM [GRK3_Y109_R104K_YF] | 0.6859 | 0.5964 | 0.9818 | 1.299 | 
23 | VDGSLYETHPQ [HK1_Y417_K418E] |  | 4.441 | 1.816 | 2.555 | 
24 | HNLDFYKETTN [FGFR3_Y648_K650E_YF] | -1.013 | -1.533 | -0.9671 | -1.243 | 
25 | MSRFIYSTDFF [NTRK1_Y676_D674Y_YF] |  | -0.8782 | -1.34 | -1.706 | Screen (c-Src kinase domain; [4]): -0.3372
26 | MTFQNYRQALF [FAM20C_Y279_G280R] |  |  |  | -1.483 | 

Row | Sequence | Screen (c-Src kinase domain; [1]) | Screen (Fer kinase domain; [3]) | Screen (EPHB1 kinase domain) | Screen (EPHB2 kinase domain; [5]) | also measured
27 | RVLQLYGCSPS [ASTL_Y279_K277Q] |  |  |  | 1.225 | 
28 | QMVGMYASFFM [AVPR2_Y124_S127F_YF] | 2.334 | 2.583 | 1.725 | 1.338 | 
29 | FIGVTYKNKED [PDGFRA_Y993_E996K_YF] |  |  |  |  | Screen (c-Abl kinase domain; [2]): -0.7207
30 | ASTHIYQIMNH [ITK_Y588_V587I] | 0.7541 | 2.332 | 3.124 | 2.415 | 
31 | GTSLIYWILFT [G6PC3_Y214_T216I] | -1.381 | -1.528 | -1.942 | -1.51 | 
32 | NPQKSYFICLF [WAS_Y83_R86C_YF] |  |  |  |  | Screen (c-Abl kinase domain; [8]): 3.12
33 | KNNSIYVLANI [VNN1_Y134_V136L] |  |  |  |  | Screen (c-Abl kinase domain; [8]): -3.297; Screen (Fer kinase domain; [6]): 1.88
34 | QTSSNYDDAMQ [ZNF281_Y531_I527T] |  |  |  |  | Screen (c-Abl kinase domain; [8]): -4.858
35 | DDSNPYINVKL [MTHFD1_Y52_L51P] |  |  |  |  | Screen (c-Abl kinase domain; [2]): -0.8391
36 | EFHRLYEEFTR [PIK3R1_Y467_D464H_YF] |  | -0.6972 | 0.6076 | -0.0373 | Screen (c-Src kinase domain; [4]): 0.07006
37 | DCLASYLDKVR [KRT16_Y131_R127C] |  |  |  |  | Screen (c-Abl kinase domain; [2]): 1.893
38 | VFLGAYDHFLP [SLC22A5_Y486_R488H_YF] |  |  |  | 1.125 | Screen (c-Src kinase domain; [4]): -0.3296; Screen (Fer kinase domain; [6]): 2.03; Screen (variant relative to reference peptide, measured in the pTyr-Var library screen) (EPHB1 kinase domain): 0.9383
39 | NREGVYTVSAP [TGFBI_Y537_F540S] |  |  |  | -1.97 | Screen (c-Src kinase domain; [4]): -0.08291; Screen (Fer kinase domain; [6]): -3.034; Screen (variant relative to reference peptide, measured in the pTyr-Var library screen) (EPHB1 kinase domain): -2.126
40 | SRDPFYEMLTA [CYTH1_Y382_A386T] | 0.1014 | -0.1692 | 0.4954 | 0.7334 | 
41 | VIIVLYFSLWK [SLC6A2_Y249_V245I] |  |  |  |  | Screen (c-Abl kinase domain; [8]): -0.9059
42 | AVISVYDLVVV [PSEN1_Y256_A260V] |  | 0.009469 | -0.1318 | -0.3059 | Screen (c-Src kinase domain; [4]): -0.2228
43 | PSPTKYSLSPS [RANBP2_Y785_R784K] |  |  |  |  | Screen (c-Abl kinase domain; [2]): 1.871
44 | FDKPVYQKTTE [LDLR_Y828_N825K] |  |  |  |  | Screen (c-Abl kinase domain; [2]): 0.7779
45 | FVPSNYVAEDR [FRK_Y104_I100V_YF] |  |  |  |  | Screen (c-Abl kinase domain; [2]): 0.1639
46 | ICFSDYVEVAD [PHACTR1_Y525_R521C] |  |  | 0.304 |  | Screen (c-Abl kinase domain; [2]): 1.249
47 | DAAEDYAEGVC [DHODH_Y194_R199C] |  |  |  |  | Screen (c-Abl kinase domain; [2]): -0.7613
48 | FTDPFYDFEIE [ZC3H18_Y372_A368T_YF] |  |  |  |  | Screen (c-Src kinase domain; [4]): 0.548; Screen (c-Abl kinase domain; [8]): 2.472; Screen (variant relative to reference peptide, measured in the pTyr-Var library screen) (EPHB1 kinase domain): 0.9547
49 | MENFIYESMQF [CYP19A1_Y361_R365Q_YF] | 0.1198 | 0.2137 | 0.9498 | 1.167 | 
50 | LVTCSYLLGNS [LMNA_Y646_R644C] |  |  |  | 1.308 | 
51 | RLAKRYLIWEC [SCN5A_Y694_Q692K] |  |  |  |  | Screen (c-Abl kinase domain; [8]): -1.185
52 | SVVVLYEPPEV [TP53_Y220_P219L] |  |  |  |  | Screen (Fer kinase domain; [6]): 3.283; Screen (variant relative to reference peptide, measured in the pTyr-Var library screen) (EPHB1 kinase domain): 3.168; Screen (EPHB2 kinase domain; [7]): 4.006
